# ChEMBL document CHEMBL3091347, “Comparison of Multiple Linear Regressions and Neural Networks based QSAR models for the design of new antitubercular compounds” (Eur J Med Chem, 2013)
# How the values were obtained:
# [1] = Lipophilicity, log P of the compound; details: octanol/water
# [2] = system: Mycobacterium tuberculosis; assay: Antitubercular activity against Mycobacterium tuberculosis BCG; assay type: functional
# [3] = system: Mycobacterium tuberculosis; assay: Antitubercular activity against Mycobacterium tuberculosis; assay type: functional; details: for MIC: Mycobacterium tuberculosis
Compound,logP ([1]; logP),MIC [2] [µg/mL],log(1/MIC) [2],log(1/MIC) [3],MIC [3] [µg/mL],logP [1]
CC(C)/C=N/NC(=O)c1cccs1,0.125,1.2,-0.07918,,,
CCCCCC/C=N/NC(=O)c1cccs1,1.84,6,-0.7782,,,
NNC(=O)c1ccc(C(=O)NN)cc1,-3.83,3,-0.4771,,,
NNC(=O)C(O)(c1ccccc1)c1ccccc1,0.196,100,-2,,,
CCCCCCCCCCCCNNC(=O)c1ccncc1,3.64,0.05,1.301,,,
O=C(NNCc1ccco1)c1ccncc1,-0.641,15,-1.176,,,
CC(=O)N1CCC(C(=O)NN)CC1,-3.98,6,-0.7782,,,
CC(=O)NN,-2.78,150,-2.176,,,
NNC(=O)/C=C/C(=O)NN,,,,-1.9,80,
NNC(=O)CCC(=O)NN,,25,-1.398,,,
NNC(=O)CCCCCCCCCCC(=O)NN,-2.03,3,-0.4771,,,
NNC(=O)C1CCC(C(=O)NN)CC1 (stereo unspecified),,300,-2.477,,,-4.55
NNC(=O)c1ccc(I)cc1,0.278,6,-0.7782,,,
CN(C)c1ccc(C(=O)NN)cc1,-0.65,6,-0.7782,,,
O=C(N/N=C(\CO)C(O)C(O)C(O)CO)c1ccncc1 (stereo unspecified),,0.06,1.222,,,
O=C(N/N=C/C(O)C(O)C(OC1OC(CO)C(O)C(O)C1O)C(O)CO)c1ccncc1 (stereo unspecified),,0.15,0.8239,,,
CNC1C(OC2C(OC3C(O)C(O)C(NC(=N)N)C(O)C3NC(=N)N)OC(C)C2(O)/C=N\NC(=O)c2ccncc2)OC(CO)C(O)C1O (stereo unspecified),,,,0.82,0.15,
Cc1ccc(C)n1NC(=O)c1ccncc1,0.854,10,-1,,,
O=CNNC(=O)c1ccncc1,-2.99,3,-0.4771,,,
CCCCCC/C=N/NC(=O)c1ccncc1,0.719,0.03,1.523,,,
C/C=C/CCCCCCC/C=N/NC(=O)c1ccncc1,2.29,0.15,0.8239,,,
CCCCCCCCCC/C=N/NC(=O)c1ccncc1,2.83,0.3,0.5229,,,

Compound,logP ([1]; logP),MIC [2] [µg/mL],log(1/MIC) [2],log(1/MIC) [3],MIC [3] [µg/mL],logP [1]
CC1CCC(=NNC(=O)c2ccncc2)CC1 (stereo unspecified),0.315,0.07,1.1549,,,
CC(C)COc1ccc(/C=N/NC(=O)c2ccncc2)cc1,2.81,0.2,0.699,,,
CC(C)CCOc1ccc(/C=N/NC(=O)c2ccncc2)cc1,3.34,0.05,1.301,,,
N/N=C(\CC(=O)c1ccncc1)C(=O)c1ccncc1,-3.16,15,-1.176,,,
CC(C(=O)c1ccncc1)C(/C=N/N)C(=O)c1ccncc1 (stereo unspecified),-2.43,0.5,0.301,,,
CC(=O)C/C(C)=N/NC(=O)c1ccncc1,-3.02,0.8,0.09691,,,
O=C(N/N=C/C(O)C(O)C(O)CO)c1ccncc1 (stereo unspecified),,0.05,1.301,,,-5.33
O=C(N/N=C\C(O)C(O)C(O)C(O)CO)c1ccncc1 (stereo unspecified),,0.15,0.8239,,,
CC(=O)Nc1ccc(/C=N\NC(=O)c2ccncc2)cc1,0.457,0.08,1.097,,,
CCC(CC)NNC(=O)c1ccncc1,-0.19,3,-0.4771,,,
O=C(NNC1CCCCC1)c1ccncc1,-0.055,5,-0.699,,,
CC1CCCC(NNC(=O)c2ccncc2)C1 (stereo unspecified),0.464,4,-0.6021,,,
CC1CCC(NNC(=O)c2ccncc2)CC1 (stereo unspecified),0.594,5,-0.699,,,
NNC(=O)c1cncs1,-2.2,10,-1,,,
NNC(=O)C(O)c1ccccc1 (stereo unspecified),-1.37,40,-1.602,,,
NNC(=O)Cc1ccc(Cl)cc1,-0.503,10,-1,,,
NNC(=O)C1Cc2ccccc2O1 (stereo unspecified),-1.32,22.5,-1.352,,,
Cn1cncc1C(=O)NN,-2.55,300,-2.477,,,
NNC(=O)c1cscn1,-2.05,15,-1.176,,,
O=C(NNC(=O)c1cccs1)c1cccs1,-0.738,15,-1.176,,,
NNC(=O)c1cccnc1 [NICOTINIC ACID HYDRAZIDE],,2,-0.301,,,-2.32
NNC(=O)c1cnccn1 [PYRAZINE CARBOXYLIC ACID HYDRAZIDE],-2.87,1.5,-0.1761,,,
